Measured values taken from patent publication US20260240851A1, “Treatment of Parkinson's Disease in a Patient Using a Glucocerebrosidase Activator” (BIAL - R&D Investments, S.A., priority 2023, published 2026).

Legend:
[1] = Phase 2 placebo-controlled study of Compound A in GBA-PD (Example 3); assay type: in vivo, human
Text: This study is a Phase 2, randomized, double-blind, placebo-controlled, multiple oral dose study of Compound A in subjects (aged 35 to 80 years, inclusive) with GBA-PD. The subjects have a clinical diagnosis of PD for at least 1 year and for no longer than 7 years before initiation of screening (for Part A), as confirmed by a neurologist using the MDS Criteria for Parkinson's Disease, have a modified Hoehn and Yahr score 2.5, have a score of ≥22 on the Montreal Cognitive Assessment (MoCA), and are receiving symptomatic treatment for PD. […] The objectives of this study are to investigate the efficacy, safety, tolerability, pharmacodynamics and PK of once-daily oral administration of Compound A.
Genetic screening of the subjects is performed using blood collected (preferably whole blood samples). Subjects are screened by sequencing of the full GBA1 gene, with specifications of any PD risk-associated variants that are identified. Subjects are also screened for the presence or absence of PD risk-associated variants in the LRRK2 (Leucine-rich repeat kinase 2) gene. Subjects who have an LRRK2 pathogenic variant are not eligible for Part B (Double-Blind Treatment) of the study.
Subjects that have a pathogenic variant in the glucocerebrosidase 1 (GBA1) gene (GBA-PD) (for example, see Appendix 1) and have been on a stable dose of PD medication for at least 30 days (at least 60 days for rasagiline) before commencing treatment are included in the next stage of the trial. In addition, subjects with the following are excluded from further treatment: • The subject has Gaucher's disease (GD), as defined by clinical signs and symptoms (i.e., hepatosplenomegaly, cytopenia, skeletal disease), and/or a medical history of marked deficiency of GCase plasmatic activity (preferably GCase whole blood activity) compatible with GD. • The subject is homozygous for a GBA1 pathogenic variant that is known to be associated with GD or compound heterozygous for 2 alleles that are known to be associated with GD. • The subject carries a known PD-associated LRRK2 pathogenic variant (for example, see Appendix 2). • The subject has atypical or secondary parkinsonism by medical history or in the opinion of the investigator. Atypical parkinsonism includes, but is not limited to, diagnoses of progressive supranuclear palsy, cortico-basal syndrome, and multiple system atrophy. Secondary parkinsonism includes drug-induced, toxin-induced, postinfectious, posttraumatic, or vascular parkinsonism. • The subject is using a strong CYP3A4 modulator at the time of screening for Part B. • The subject is using a breast cancer resistance protein (BCRP) substrate (e.g. pravastatin, rosuvastatin, glyburide) at the time of screening for Part B. • (Optionally) The subject has used any of the following medications within 60 days before Baseline: typical or atypical antipsychotics (including, but not limited to, clozapine, pimavanserin, olanzapine, quetiapine, risperidone, and aripiprazole); metoclopramide; prochlorperazine; methyldopa; tetrabenazine; deutetrabenazine; valbenazine; reserpine; or a prior history or continuation or initiation during the study of ambroxol at doses >120 mg/day.
Subjects are randomly assigned to three groups who receive i) Compound A 10 mg, once daily, oral administration, ii) Compound A 60 mg, once daily, oral administration, or iii) Placebo, once daily, oral administration. Subjects also receive their usual PD medications throughout the study. Randomization is stratified by major/severe (e.g., heterozygous for N370S, D409H, H255Q, D140H, G202R, L324P, I260T, L444P, A190T, R120W; homozygous for T369M or E326K) or minor/mild (e.g., heterozygous for T369M or E326K) PD risk-associated variant. Alternatively, randomization is stratified by severity as a mild or severe GBA1 variant as described in Parlar, 2023 (also see Appendix 1). […]

[2] = LTI-291-004 imaging study in GBA-PD: plasma concentrations; assay type: in vivo, human; details: Day 7, Day 14, Day 28, GBA-PD
Method: This study was a Phase 1B, randomized, double-blind, placebo-controlled, multiple oral dose study of Compound A in 14 subjects (aged 51 to 81 years) with GBA-PD. The objectives of this study were to investigate the safety, tolerability, and PK of multiple once-daily oral administration of Compound A and to explore the accompanying pharmacodynamic changes. Subjects received once-daily oral doses of 10 mg (n=6) or 60 mg (2×30 mg capsules) (n=6) Compound A or placebo (n=2) for 28 consecutive days. PK samples were measured once on Day 7 and Day 14 and 4 times after the last dose on Day 28. Plasma concentrations were summarized at each time point, and no PK parameters were estimated. The PD evaluations included fMRI measures; FDG-PET to determine the metabolic rate of glucose in specific regions of the brain; and functional outcome measures (MDS-UPDRS Part III and the MMSE). GluCer, GluSph, and LacCer and other sphingolipids were measured in PBMCs and plasma as biomarkers of pharmacological effect.

What does the source list for `CCCCCO[C@H]1CC[C@H](NC(=O)c2cnn3c(C)cc(C)nc23)CC1` [Compound A, 5,7-dimethyl-N-((1S*,4S)-4-(pentyloxy)cyclohexyl)pyrazolo[1,5-a]pyrimidine-3-carboxamide]?
Mean plasma concentrations, 60 mg vs 10 mg ([1]; all measured time points): higher after the 60 mg dose than after the 10 mg dose; time to worsening (MDS-UPDRS based and other measures) ([1]; some subjects, Compound A 10 or 60 mg daily up to 78 weeks vs placebo): increased time to worsening; Mean change in lysosomal activity ([1]; vs placebo): higher; Mean change in plasma concentrations of neurofilament light chain ([1]; vs placebo): lower; Mean change of cerebral blood flow by arterial spin labeling with MRI ([1]; vs placebo): higher; mean change in the level of GluSph ([1]; vs placebo): higher; Mean plasma concentrations, 60 mg vs 10 mg [2]: higher after the 60 mg dose than after the 10 mg dose
